According to patent US11506660B2, “Method and system for determining equilibrium dissociation constant of a reversible binding pair” (priority 2017, dated 2022):
Where two headings read alike, the source gives them in different places.

Experiments:
BSA [1] = target: T1, BSA (Bos taurus, UniProt P02769); experiment: LSTDLPF-MS (APCI mass-spectrometry detection) Kd determination, BSA/fluorescein; type: binding, bovine
Method: In another embodiment, the LSTDLPF setup was coupled with a mass-spectrometry (MS) detector. To facilitate complete dissociation of SM during ionization, an atmospheric pressure chemical ionization (APCI) ionization source was utilized (FIGS. 14A, 16A). The LSTDLPF-MS tandem was first used to study the same BSA/fluorescein binding pair. Experimental conditions were: internal capillary diameter=200 μm, capillary length=100 cm, flow rate of LPF=100 μL/min. loop's internal diameter=75 μm, loop's length=22.7 cm, loop's volume=1 μL, EM injection into the capillary followed by EM displacement from the capillary opening by 5 μL/min for 12 s (EM plug length=3.2 cm); “pre-separation” plug displacement by 5 μL/min for 12 s (3.2 cm displacement); [fluorescein]0=200 nM; and buffer was 30 mM ammonium acetate buffer at pH 7.5. MS experiments were carried out on a QTRAP 6500+ time-of-flight (Q-TOF) instrument (Sciex, Concord, ON, Canada) with a commercial Turbo V APCI ionization source. The optimal acceleration and focusing conditions were achieved by using 60 V declustering potential at 525° C. and 90 psi gas pressure. The analyses were performed in positive mode and scanned m/z 287 Da for fluorescein. The results were analyzed by using Analyst® QS 2.0 software.
The MS signal decreased with increasing [BSA]0 (FIG. 14A), due to the screening effect. The results presented repeatability (see FIGS. 15A-15I). Experimental conditions were: internal capillary diameter=200 μm, capillary length=100 cm, flow rate of LPF=100 μL/min. loop's internal diameter=75 μm, loop's length=22.7 cm, loop's volume=1 μL, EM injection by 5 μL/min for 12 s (plug length=3.2 cm); “pre-separation” plug displacement by 5 μL/min for 12 s (3.2 cm displacement); [fluorescein]0=200 nM; [BSA]0 ranged from 0 to 1 mM; and buffer was 30 mM ammonium acetate buffer at pH 7.5. MS experiments were carried out on a QTRAP 6500+ time-of-flight (Q-TOF) instrument (Sciex, Concord, ON, Canada) with a commercial Turbo V APCI ionization source. […] The results were analyzed by using Analyst® QS 2.0 software

BSA [2] = target: T1, BSA; settings: known value, Andersson et al. Eur. J. Biochem. 1971; cited from earlier work
BSA [3] = target: T1, BSA; experiment: LSTDLPF-based Kd determination with fluorescence detection, BSA/fluorescein; type: binding, bovine
Method: In an experimental implementation of the method, LSTDLPF was carried out with flow conditions inside the capillary tube being as close to LPF as possible. It is known that LPF is distorted at the capillary entrance open to a large-volume reservoir (A. Molki, L. Khezzar, A. Goharzadeh Eur. J. Phys. 2013, 34, 1127-1134).
The system operates in the following manner. A loop 116 is utilized in order to deliver the same amount of sample consistently. […] To complete the filling of the loop, the sample 110 was introduced into the loop at 15 μL/min during 12 s (t1) by using a sample low pressure pump 126, which represents 3 times the volume of the loop (FIG. 8A). The low-pressure pump 126 may be, but is not limited to, a syringe pump or a peristaltic pump. While the loop is being filled as depicted in FIG. 8A, the capillary 108 is conditioned with the mobile phase 118 at high flow rate by using a high-pressure pump 124. This high flow rate corresponds to the flow rate utilized during the propagation and will be noted Qprop afterward.
The injection of the sample is illustrated in FIG. 8B. The positions of both valves 102 and 104 have been switched. In this configuration, the low-pressure pump 128 delivered the mobile phase 112 via the injection loop 116 which contained the sample or equilibrium mixture (EM) 110. […]

[4] = tested on: α1-acid glycoprotein (AGP); settings: literature, cited from earlier work
[5] = target: T2, α1-acid glycoprotein (AGP) (Homo sapiens, UniProt P02763); experiment: LSTDLPF-MS (APCI mass-spectrometry detection) Kd determination, alprenolol/AGP; type: binding; settings: α1-acid glycoprotein (AGP) in buffer, pH 7.5, Kd
T2 construct: Kd; [alprenolol]0=500 nM; 30 mM ammonium acetate p; Kd; other: MS detection
T2 sequence (P02763 19-201): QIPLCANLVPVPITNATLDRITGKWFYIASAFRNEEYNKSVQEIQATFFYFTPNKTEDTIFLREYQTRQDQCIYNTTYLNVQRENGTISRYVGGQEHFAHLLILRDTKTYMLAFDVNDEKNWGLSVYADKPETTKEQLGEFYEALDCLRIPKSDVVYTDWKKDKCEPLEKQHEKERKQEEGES
Method: The LSTDLPF-MS tandem was then used in Kd determination for a reversible binding pair of alprenolol and α1-acid glycoprotein (AGP).
MS experiments were carried out on a QTRAP 6500+ time-of-flight (Q-TOF) instrument (Sciex, Concord, ON, Canada) with a commercial Turbo V APCI ionization source. The optimal acceleration and focusing conditions were achieved by using 60 V declustering potential at 525° C. and 90 psi gas pressure. The analyses were performed in positive mode and scanned m/z 250 Da for alprenolol. The results were analyzed by using Analyst® QS 2.0 software. The propagation profiles obtained for [alprenolol]0=500 nM and varying [AGP]0 were reproducible (FIGS. 19A-19J). Experimental conditions were: internal capillary diameter=200 μm, capillary length=100 cm, flow rate of LPF=100 μL/min., loop's internal diameter=75 μm, loop's length=22.7 cm, loop's volume=1 μL; EM injection by 5 μL/min for 12 s (plug length=3.2 cm); “pre-separation” plug displacement by 5 μL/min for 12 s (3.2 cm displacement); [AGP]0 ranged from 0 to 1 mM; buffer was 30 mM ammonium acetate buffer at pH 7.5.
In this case, the screening phenomenon was characterized by enhancing signal of alprenolol with growing [AGP]0, (FIG. 16A). […] The method is also characterized by an acceptable reproducibility.

T1 sequence (P02769 25-607): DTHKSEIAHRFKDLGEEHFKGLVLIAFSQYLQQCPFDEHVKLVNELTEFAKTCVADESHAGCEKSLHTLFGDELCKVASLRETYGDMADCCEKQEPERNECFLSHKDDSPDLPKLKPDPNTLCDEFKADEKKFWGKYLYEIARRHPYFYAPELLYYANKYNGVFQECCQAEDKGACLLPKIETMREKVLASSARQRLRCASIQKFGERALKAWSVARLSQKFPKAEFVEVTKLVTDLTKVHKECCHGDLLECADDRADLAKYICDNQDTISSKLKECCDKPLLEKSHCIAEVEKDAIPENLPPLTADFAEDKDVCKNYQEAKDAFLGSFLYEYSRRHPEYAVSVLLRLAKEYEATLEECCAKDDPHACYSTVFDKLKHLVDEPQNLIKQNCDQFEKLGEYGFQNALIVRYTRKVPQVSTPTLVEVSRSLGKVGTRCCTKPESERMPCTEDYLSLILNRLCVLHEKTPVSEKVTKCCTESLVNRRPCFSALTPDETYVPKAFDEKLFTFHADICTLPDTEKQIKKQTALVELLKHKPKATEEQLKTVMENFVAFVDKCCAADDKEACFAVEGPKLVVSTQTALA

Kd (BSA [1]; after 2-step screening compensation, first experiment (FIG. 14C), [fluorescein]0=200 nM, read-out: Kd) [µM]	Kd (BSA [1]; after screening compensation, reproduced on another day (FIG. 18), read-out: Kd) [µM]	Kd (BSA [1]; weighted average of the two Kd measurements, read-out: weighted average of Kd) [µM]	Kd (BSA [3]; single experiment, non-linear regression of isotherm with Equation 5, [fluorescein]0=200 nM, 30 mM ammonium acetate pH 7.5, error = SD of regression, read-out: Kd) [µM]	Kd (BSA [3]; triplicate experiment on three different days, error = SD of the three experiments, read-out: global Kd) [µM]	SMILES	Kd (BSA [2]) [µM]	Kd ([4]; Bao et al. ChemBioChem 2011) [µM]	Kd ([4]; Imamura et al. Chirality 2002) [µM]	Kd at 500 nM ([5]; after 2-step screening compensation (FIG. 16C), [alprenolol]0=500 nM, 30 mM ammonium acetate pH 7.5) [µM]	Kd at 500 nM ([5]; measurements performed on a different day (FIGS. 20A-20D)) [µM]
32 ± 4	24 ± 2	26 ± 2	23 ± 3	20 ± 2	O=C1OC2(c3ccc(O)cc3Oc3cc(O)ccc32)c2ccccc21 [fluorescein]	~30				
					C=CCc1ccccc1OCC(O)CNC(C)C (stereo not shown) [alprenolol, Alprenolol]		2.1 ± 0.3	1.6 ± 0.1	1.8 ± 0.2	4.1 ± 0.8
